Here are results for 17 molecules from ChEMBL document CHEMBL1140789, “Sulfonate chalcone as new class voltage-dependent K+ channel blocker” (Bioorg Med Chem Lett, 2008).

Some results are limits rather than exact numbers.

What all share (type): cell-based
A short description of experiment [1]: Blockade of human K+ channel in HEK293 cells assessed as inhibition of outward delayed rectifying K+ current.
Another experiment concerns HEK293. Description: Blockade of human K+ channel in HEK293 cells assessed as inhibition of outward delayed rectifying K+ current at 10 uM.
Experiment [2] addresses Potassium voltage-gated channel subfamily A member 6 (Homo sapiens) (UniProt P17658). In words: Blockade of Kv1.6 channel over-expressed in CHO cells assessed as inhibition of delayed rectifying K+ current at 10 uM.
For experiment [3], the target named is Potassium voltage-gated channel subfamily A member 1 (Homo sapiens) (UniProt Q09470). Description: Blockade of Kv1.1 channel over-expressed in CHO cells assessed as inhibition of delayed rectifying K+ current at 10 uM.
Potassium voltage-gated channel subfamily A member 1 (Homo sapiens), sequence (Q09470 whole entry): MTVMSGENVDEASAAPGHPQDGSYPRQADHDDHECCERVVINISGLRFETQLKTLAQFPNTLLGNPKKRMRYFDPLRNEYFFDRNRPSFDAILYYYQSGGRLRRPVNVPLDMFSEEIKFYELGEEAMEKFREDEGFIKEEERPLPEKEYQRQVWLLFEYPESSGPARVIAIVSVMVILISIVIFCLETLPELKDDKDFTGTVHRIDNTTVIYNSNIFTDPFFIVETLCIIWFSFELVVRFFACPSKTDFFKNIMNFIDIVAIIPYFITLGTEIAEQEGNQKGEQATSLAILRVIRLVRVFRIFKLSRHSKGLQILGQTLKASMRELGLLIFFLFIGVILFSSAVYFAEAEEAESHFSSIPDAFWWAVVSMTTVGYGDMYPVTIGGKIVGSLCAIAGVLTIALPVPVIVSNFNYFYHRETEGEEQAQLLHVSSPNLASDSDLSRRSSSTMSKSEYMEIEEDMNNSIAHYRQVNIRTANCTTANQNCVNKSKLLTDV
The target of experiment [4] is Potassium voltage-gated channel subfamily A member 2 (Homo sapiens) (UniProt P16389). In words: Blockade of Kv1.2 channel over-expressed in CHO cells assessed as inhibition of delayed rectifying K+ current at 10 uM.
Potassium voltage-gated channel subfamily A member 2 (Homo sapiens), sequence (P16389 whole entry): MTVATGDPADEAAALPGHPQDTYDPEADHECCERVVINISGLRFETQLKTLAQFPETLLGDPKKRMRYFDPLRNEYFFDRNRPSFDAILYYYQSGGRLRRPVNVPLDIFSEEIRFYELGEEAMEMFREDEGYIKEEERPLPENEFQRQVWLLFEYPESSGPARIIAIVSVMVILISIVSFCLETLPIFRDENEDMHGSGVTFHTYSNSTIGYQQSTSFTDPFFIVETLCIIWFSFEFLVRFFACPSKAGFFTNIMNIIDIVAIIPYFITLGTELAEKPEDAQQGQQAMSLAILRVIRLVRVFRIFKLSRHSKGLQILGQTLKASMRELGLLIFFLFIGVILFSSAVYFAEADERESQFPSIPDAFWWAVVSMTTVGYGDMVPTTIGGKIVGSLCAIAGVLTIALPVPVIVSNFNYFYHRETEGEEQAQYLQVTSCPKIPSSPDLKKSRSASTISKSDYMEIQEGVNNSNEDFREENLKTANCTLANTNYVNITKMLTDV
The target of experiment [5] is Potassium voltage-gated channel subfamily A member 3 (Homo sapiens) (UniProt P22001). In words: Blockade of Kv1.3 channel over-expressed in CHO cells assessed as inhibition of delayed rectifying K+ current at 10 uM.
Potassium voltage-gated channel subfamily A member 3 (Homo sapiens), sequence (P22001 whole entry): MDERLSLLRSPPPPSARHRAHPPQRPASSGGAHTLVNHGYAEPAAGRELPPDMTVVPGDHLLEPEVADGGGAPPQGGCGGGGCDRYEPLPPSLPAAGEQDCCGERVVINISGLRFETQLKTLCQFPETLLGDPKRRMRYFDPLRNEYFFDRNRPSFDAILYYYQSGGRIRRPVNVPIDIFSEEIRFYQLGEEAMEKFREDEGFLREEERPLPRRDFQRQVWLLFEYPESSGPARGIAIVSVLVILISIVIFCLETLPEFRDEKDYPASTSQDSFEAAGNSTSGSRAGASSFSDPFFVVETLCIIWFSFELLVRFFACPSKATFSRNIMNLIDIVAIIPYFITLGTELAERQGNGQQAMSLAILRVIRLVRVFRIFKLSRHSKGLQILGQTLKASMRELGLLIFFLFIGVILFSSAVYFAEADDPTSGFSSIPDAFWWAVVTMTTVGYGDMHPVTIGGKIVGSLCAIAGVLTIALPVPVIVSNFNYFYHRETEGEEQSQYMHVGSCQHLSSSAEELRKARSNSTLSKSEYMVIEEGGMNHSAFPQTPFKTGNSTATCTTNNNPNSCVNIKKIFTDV

As a reminder, the IC50 is the concentration at which inhibition is half-maximal. In general, inhibition refers to the change of the read-out against control, counted positive when it falls.

Potassium voltage-gated channel subfamily A member 6 (Homo sapiens), sequence (P17658 whole entry): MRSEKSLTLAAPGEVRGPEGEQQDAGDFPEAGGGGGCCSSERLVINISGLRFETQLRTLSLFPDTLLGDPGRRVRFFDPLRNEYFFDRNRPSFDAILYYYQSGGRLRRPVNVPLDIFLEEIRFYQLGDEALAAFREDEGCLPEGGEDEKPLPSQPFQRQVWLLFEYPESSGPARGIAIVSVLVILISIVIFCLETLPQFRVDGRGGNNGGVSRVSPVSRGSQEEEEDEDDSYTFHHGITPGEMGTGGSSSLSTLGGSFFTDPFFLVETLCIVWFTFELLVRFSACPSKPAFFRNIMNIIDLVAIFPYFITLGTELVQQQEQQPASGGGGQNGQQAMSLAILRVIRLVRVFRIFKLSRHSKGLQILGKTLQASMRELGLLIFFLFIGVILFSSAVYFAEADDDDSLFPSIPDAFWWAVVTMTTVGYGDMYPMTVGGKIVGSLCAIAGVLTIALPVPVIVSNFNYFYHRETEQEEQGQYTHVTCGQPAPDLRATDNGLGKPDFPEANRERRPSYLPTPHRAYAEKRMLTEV

With `COc1ccc(/C=C/C(=O)c2ccc(OS(=O)(=O)c3ccc(C)cc3)cc2)cc1`, the IC50 in experiment [1] is > 10 µM.

Consider `O=C(/C=C/c1ccccc1)c1ccc(O)cc1` [4'-HYDROXYCHALCONE], for which the IC50 in experiment [1] is > 50 µM.

Turning to `O=C(/C=C/c1ccc(O)cc1)c1ccc(O)cc1` [4,4'-DIHYDROXYCHALCONE], the inhibition in the experiment on HEK293 stood at 28.2%. Also, the IC50 in experiment [1] was > 50 µM. As for `O=C(/C=C/c1ccc(O)cc1)c1ccc(OS(=O)(=O)c2ccccc2)cc1`, the IC50 in experiment [1] is 2.4 µM. Same read-out and setting: the same measure for `Cc1ccc(S(=O)(=O)Oc2ccc(C(=O)/C=C/c3ccc(O)cc3)cc2)cc1`: 1.6 µM; for `O=C(/C=C/c1ccc(O)cc1)c1ccc(OS(=O)(=O)c2ccc(F)cc2)cc1`: 2.7 µM.

On to `CC(=O)Nc1ccc(S(=O)(=O)Oc2ccc(C(=O)/C=C/c3ccc(O)cc3)cc2)cc1`, for which the IC50 in experiment [1] was > 10 µM. As for `Cc1ccc(S(=O)(=O)Oc2ccc(/C=C/C(=O)c3ccccc3)cc2)cc1`, the IC50 in experiment [1] was > 50 µM. For the molecule `O=C(/C=C/c1ccc(OS(=O)(=O)c2ccccc2)cc1)c1ccccc1`, the IC50 in experiment [1] was > 50 µM. Consider `Nc1ccc(S(=O)(=O)Oc2cccc(C(=O)/C=C/c3ccc(O)cc3)c2)cc1`, for which the inhibition in experiment [2] came to 44.2%; in experiment [3], 87.5%; in experiment [4] it was 87.4%; in experiment [5] it was 20.6%. Moreover, in experiment [1], the 50% inhibitory concentration (IC50) amounted to 0.51 µM. Turning to `O=C(/C=C/c1ccc(OS(=O)(=O)c2ccc(F)cc2)cc1)c1ccccc1`, the IC50 in experiment [1] is > 50 µM. `Nc1ccc(S(=O)(=O)Oc2ccc(C(=O)/C=C/c3ccccc3)cc2)cc1`: the IC50 in experiment [1] was 0.85 µM. For `O=C(/C=C/c1ccccc1)c1ccccc1` [CHALCONE], the inhibition in the experiment with HEK293 is 24.2%. Also, the IC50 in experiment [1] was > 50 µM. Consider `Nc1ccc(S(=O)(=O)Oc2ccc(C(=O)/C=C/c3ccc(O)cc3)cc2)cc1`, for which the IC50 in experiment [1] amounted to 1.1 µM. On the same count and under the same terms, the same measure for `O=C(/C=C/c1ccc(O)cc1)c1ccc(OS(=O)(=O)c2ccc([N+](=O)[O-])cc2)cc1`: 10.7 µM; for `Cc1ccc(S(=O)(=O)Oc2ccc(/C=C/C(=O)c3ccc(O)cc3)cc2)cc1`: > 50 µM. Consider `O=C(/C=C/c1ccc(O)cc1)c1ccccc1` [4-HYDROXYCHALCONE], for which the IC50 in experiment [1] is > 50 µM.
